# Assay results published in PubChem BioAssay AID2060495 (Molecular Pharmacology Branch, DTP, NCI, 2025).
# Test system: 521955-158-R2-J5-PDC complex spheroid viability
# Assay: Anticancer human tumor 521955-158-R2-J5-PDC patient-derived pancreatic carcinoma cell line growth inhibition [GQUAD]
# Conditions: for IC50: curve of first compound; for viability, T/C: stronger effect = lower value
# Summary of the method: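 Viability of tumor cells grown as complex spheroids with endothelial and stromal cells, exposed to drug combinations. Top concentration at or near clinical Cmax (else 10 microM), diluted in half-log increments.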
# [1] = second compound 0.0316 µM, first compound 0.0316 µM
# [2] = second compound 0.0316 µM, first compound 0.1 µM
# [3] = second compound 0.0316 µM, first compound 0.316 µM
# [4] = second compound 0.0316 µM, first compound 1 µM
# [5] = second compound 0.0316 µM, first compound 3.16 µM
# [6] = second compound 0.0316 µM, first compound 10 µM
# [7] = second compound 0.1 µM, first compound 0.0316 µM
# [8] = second compound 0.1 µM, first compound 0.1 µM
# [9] = second compound 0.1 µM, first compound 0.316 µM
# [10] = second compound 0.1 µM, first compound 1 µM
# [11] = second compound 0.1 µM, first compound 3.16 µM
# [12] = second compound 0.1 µM, first compound 10 µM
# [13] = second compound 0.316 µM, first compound 0.0316 µM
# [14] = second compound 0.316 µM, first compound 0.1 µM
# [15] = second compound 0.316 µM, first compound 0.316 µM
# [16] = second compound 0.316 µM, first compound 1 µM
# [17] = second compound 0.316 µM, first compound 3.16 µM
# [18] = second compound 0.316 µM, first compound 10 µM
# [19] = second compound 1 µM, first compound 0.0316 µM
# [20] = second compound 1 µM, first compound 0.1 µM
# [21] = second compound 1 µM, first compound 0.316 µM
# [22] = second compound 1 µM, first compound 1 µM
# [23] = second compound 1 µM, first compound 3.16 µM
# [24] = second compound 1 µM, first compound 10 µM
# [25] = second compound 3.16 µM, first compound 0.0316 µM
# [26] = second compound 3.16 µM, first compound 0.1 µM
# [27] = second compound 3.16 µM, first compound 0.316 µM
# [28] = second compound 3.16 µM, first compound 1 µM
# [29] = second compound 3.16 µM, first compound 3.16 µM
# [30] = second compound 3.16 µM, first compound 10 µM
# [31] = second compound 10 µM, first compound 0.0316 µM
# [32] = second compound 10 µM, first compound 0.1 µM
# [33] = second compound 10 µM, first compound 0.316 µM
# [34] = second compound 10 µM, first compound 1 µM
# [35] = second compound 10 µM, first compound 3.16 µM
# [36] = second compound 10 µM, first compound 10 µM
# 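Note: spheroids exposed to agents for one week before reading.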
# 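Throughout, for viability, T/C: 100% = DMSO vehicle control viability.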
structure (smiles),measurement,setting,value
COc1ccc([C@@H](O)c2cc(-c3ncnc4cc(N5CCOCC5)ccc34)c(F)cc2Cl)nn1 + CN(C)c1ccc(Nc2c3ccc(NC(=O)CCN4CCCC4)cc3nc3cc(NC(=O)CCN4CCCC4)ccc23)cc1,IC50,second compound 0.0316 µM,7.26 µM
same,IC50,second compound 0.1 µM,5.61 µM
same,IC50,second compound 0.316 µM,6.45 µM
same,IC50,second compound 1 µM,5.52 µM
same,IC50,second compound 3.16 µM,2.5 µM
same,IC50,second compound 10 µM,2 µM
same,"viability, T/C",[1],91.8%
same,"viability, T/C",[2],107%
same,"viability, T/C",[3],91.8%
same,"viability, T/C",[4],78.9%
same,"viability, T/C",[5],68.3%
same,"viability, T/C",[6],43.3%
same,"viability, T/C",[7],94.2%
same,"viability, T/C",[8],96.8%
same,"viability, T/C",[9],92.3%
same,"viability, T/C",[10],83.9%
same,"viability, T/C",[11],60%
same,"viability, T/C",[12],39.9%
same,"viability, T/C",[13],88.9%
same,"viability, T/C",[14],105%
same,"viability, T/C",[15],106%
same,"viability, T/C",[16],77.8%
same,"viability, T/C",[17],66.5%
same,"viability, T/C",[18],41%
same,"viability, T/C",[19],87.4%
same,"viability, T/C",[20],101%
same,"viability, T/C",[21],83%
same,"viability, T/C",[22],72.4%
same,"viability, T/C",[23],59.2%
same,"viability, T/C",[24],41.5%
same,"viability, T/C",[25],66.4%
same,"viability, T/C",[26],83.1%
same,"viability, T/C",[27],74.9%
same,"viability, T/C",[28],73.7%
same,"viability, T/C",[29],44%
same,"viability, T/C",[30],28.8%
same,"viability, T/C",[31],59.8%
same,"viability, T/C",[32],55.6%
same,"viability, T/C",[33],71.3%
same,"viability, T/C",[34],54.9%
same,"viability, T/C",[35],45.1%
same,"viability, T/C",[36],16.7%
COc1ncnc(C2CC2)c1-c1ncc2cnn(Cc3ccc(-c4nc(C(F)(F)F)cn4C(C)C)cc3)c2n1 + CN(C)c1ccc(Nc2c3ccc(NC(=O)CCN4CCCC4)cc3nc3cc(NC(=O)CCN4CCCC4)ccc23)cc1,IC50,second compound 0.0316 µM,> 10 µM
same,IC50,second compound 0.1 µM,> 10 µM
same,IC50,second compound 0.316 µM,> 10 µM
same,IC50,second compound 1 µM,> 10 µM
same,IC50,second compound 3.16 µM,> 10 µM
same,IC50,second compound 10 µM,4.55 µM
same,"viability, T/C",[1],113%
same,"viability, T/C",[2],103%
same,"viability, T/C",[3],116%
same,"viability, T/C",[4],114%
same,"viability, T/C",[5],135%
same,"viability, T/C",[6],140%
same,"viability, T/C",[7],97.7%
same,"viability, T/C",[8],112%
same,"viability, T/C",[9],107%
same,"viability, T/C",[10],112%
same,"viability, T/C",[11],148%
same,"viability, T/C",[12],122%
same,"viability, T/C",[13],95.4%
same,"viability, T/C",[14],123%
same,"viability, T/C",[15],118%
same,"viability, T/C",[16],121%
same,"viability, T/C",[17],115%
same,"viability, T/C",[18],117%
same,"viability, T/C",[19],105%
same,"viability, T/C",[20],109%
same,"viability, T/C",[21],115%
same,"viability, T/C",[22],122%
same,"viability, T/C",[23],112%
same,"viability, T/C",[24],115%
same,"viability, T/C",[25],86%
same,"viability, T/C",[26],93%
same,"viability, T/C",[27],101%
same,"viability, T/C",[28],111%
same,"viability, T/C",[29],114%
same,"viability, T/C",[30],82.8%
same,"viability, T/C",[31],74%
same,"viability, T/C",[32],74.7%
same,"viability, T/C",[33],69.5%
same,"viability, T/C",[34],76.7%
same,"viability, T/C",[35],68.1%
same,"viability, T/C",[36],10.3%
Cc1cccc(N(C)C(=O)C2C(O)CCN2c2nc(C)cc(C(F)(F)F)c2C#N)c1 (stereo unspecified) + Cc1cnc(CNC(=O)c2c(=O)c3ccc(N4CCCN(C)CC4)nc3n3c2sc2ccccc23)cn1,IC50,second compound 0.0316 µM,> 10 µM
same,IC50,second compound 0.1 µM,> 10 µM
same,IC50,second compound 0.316 µM,< 0.0316 µM
same,IC50,second compound 1 µM,< 0.0316 µM
same,IC50,second compound 3.16 µM,< 0.0316 µM
same,IC50,second compound 10 µM,< 0.0316 µM
same,"viability, T/C",[1],96.8%
same,"viability, T/C",[2],75%
same,"viability, T/C",[3],92.8%
same,"viability, T/C",[4],78.9%
same,"viability, T/C",[5],101%
same,"viability, T/C",[6],89.6%
same,"viability, T/C",[7],54.9%
same,"viability, T/C",[8],66.2%
same,"viability, T/C",[9],71.5%
same,"viability, T/C",[10],62.2%
same,"viability, T/C",[11],88.7%
same,"viability, T/C",[12],74.6%
same,"viability, T/C",[13],43.7%
same,"viability, T/C",[14],49.9%
same,"viability, T/C",[15],40.9%
same,"viability, T/C",[16],43.7%
same,"viability, T/C",[17],46.5%
same,"viability, T/C",[18],38.2%
same,"viability, T/C",[19],23.6%
same,"viability, T/C",[20],22.5%
same,"viability, T/C",[21],22.7%
same,"viability, T/C",[22],24.4%
same,"viability, T/C",[23],20.9%
same,"viability, T/C",[24],22.9%
same,"viability, T/C",[25],19.1%
same,"viability, T/C",[26],22.3%
same,"viability, T/C",[27],19.8%
same,"viability, T/C",[28],22.8%
same,"viability, T/C",[29],20.6%
same,"viability, T/C",[30],20.1%
same,"viability, T/C",[31],20.7%
same,"viability, T/C",[32],19.2%
same,"viability, T/C",[33],21.5%
same,"viability, T/C",[34],20.2%
same,"viability, T/C",[35],24.7%
same,"viability, T/C",[36],20.2%
